# Literature values in patent US11554190B2, “Nanocarriers for the delivery of active ingredients” (President and Fellows of Harvard College, priority 2017, dated 2023).
# Like-named read-outs stand apart in the source and are kept apart here.
# Legend:
# Listeria on lettuce = details: vaporized from 10% w/v hydrogen peroxide solution
# [1] = tested on: Acinetobacter on surfaces; details: peak hydrogen peroxide concentration 500-600 ppm
# [2] = tested on: surface deposited influenza; details: 90 ppm of vapor phase H2O2, similar times of treatment
# bacteria = details: same amount of time
# pathogens on surfaces = details: 5% w/v, wet approach
structure (smiles),measurement,setting,value
OO [hydrogen peroxide],log reduction in concentration of Listeria on lettuce,Listeria on lettuce,3 log
same,log reductions in the concentration of Acinetobacter on surfaces,[1],4 log
same,log reductions of surface deposited influenza,[2],5 log
same,log reduction,bacteria; aqueous solution at 5% concentration,2.2 log
same,log reduction,bacteria; aqueous solution at 10% concentration,3.5 log
same,effectiveness against pathogens on surfaces,pathogens on surfaces,ineffective
